Laboratory results as given in US8497298B2, “Use of benzo-fused heterocycle sulfamide derivatives for lowering lipids and lowering blood glucose levels” (Janssen Pharmaceutica NV, priority 2005, dated 2013).

System: db/db mice
Assay: Diabetic db/db Mouse In Vivo Assay (Example 13)
Conditions: female db/db mice, A300 mg/kg oral gavage once daily
Text: Db/db mice are known in the art to be susceptible to Type II diabetes (Sharma K, McCue P, Dunn S R. Am J Physiol Renal Physiol. 2003 June;284(6):F1138-44). The Db/db mice are also known in the art to be a useful model for dylipidemia.
Female db/db mice (C57BL/6J-Lep^db/db, Jackson Laboratories, Bar Harbor, Me., USA) were received at 8 weeks of age and single-housed and fed with regular chow diet. Blood was collected by tail puncture and glucose was monitored with a glucometer (OneTouch Basic, Lifescan, Newtown, Pa.).
Mice at 10 weeks of age were randomized into treatment groups based on glucose values (first criterion, average of 250 mg/dl) and body weight (second criterion, average of 37 gram). The mice were orally gavaged once daily (0.2 ml at 1500-1700 hour) with vehicle control (0.5% methylcellulose, pH7.4) and vehicle containing test compound (A300 mg/kg). On day 11, the mice were fasted for 4 hr during light cycle (food was removed 0600-1000 hour) and blood glucose levels were measured through tail puncture with a glucometer at 1000 hour. The mice were then anaesthetized with sodium pentobarbital (1 ml/kg, i.p, Sleepaway, Fort Dodge, Iowa) and blood was drawn via cardiac puncture and collected into heparinized tubes.
White adipose tissue (WAT) (retroperitoneal fat) and skeletal muscle (gastrocnemius and soleus muscle) were dissected and weighed. Plasma samples were obtained by centrifuge at 2,000 g for 15 minutes at 4° C. and subjected to measurement of insulin, HDL cholesterol and triglyceride.
Data shown below are expressed as the mean and standard error calculated using 9-10 mice per treatment group. The 2 tailed Student's t-Tests were used for statistic analysis. All animal studies complied with the guideline of the Institutional Animal Care and Use Committee.

Compound: NS(=O)(=O)NC[C@H]1COc2cc(Cl)ccc2O1 [Compound #8, (2S)-(−)-N-(6-Chloro-2,3-dihydro-benzo[1,4]dioxin-2-ylmethyl)-sulfamide]
- Retroperitoneal Fat Weight (day 11): 1.31 ± 0.07 g
- Skeletal Muscle Weight (day 11): 0.154 ± 0.00 g
- Blood Glucose (day 11, fasted 4 hr): 210 ± 27 mg/dL
- HDL Cholesterol (day 11, plasma): 55.9 ± 3.7 mg/dL
- Triglycerides (day 11, plasma): 98 ± 41 mg/dL
- fat to lean mass ratio (p<0.01 vs vehicle 27.9±1.4): 23.4±0.9
- Insulin levels versus vehicle treated animals (plasma): not statistically different
